# Reference: publication PMC10439230 (Scientific Reports, 2023)
# How the values were obtained:
# [1] = tested on: A549 (lung adenocarcinoma); assay: Cytotoxic activity assay (MTT); type: cell-based, human; conditions: for IC50: Homo sapiens, A549, 48 h exposure, MTT, read-out: Cell lines, IC50 (μM) A549; for Selectivity Index (SI) values A549: SI = IC50 normal cell (MRC-5)/ IC50 cancer cell
# Source text: (§1) The synthetic compounds were screened for their cytotoxic activity using standard MTT or XTT methods[30] against a panel of nine human cancer cell lines and one normal cell line, including MDA-MB-231 (triple-negative breast cancer), T-47D (hormone-dependent breast cancer), HepG2 (hepatocellular carcinoma), A549 (lung adenocarcinoma), H69AR (multidrug-resistant small cell lung carcinoma), HuCCA-1 (cholangiocarcinoma derived from a patient), HeLa (cervical carcinoma), and two leukemia cell lines, HL-60 (acute promyelocytic leukemia) and MOLT-3 (T cell acute lymphoblastic leukemia). MRC-5 normal embryonic lung fibroblast cell line was used to represent normal cells. Chemotherapeutic drugs, doxorubicin and etoposide, were used as positive controls.
# (§2) The cells were seeded into 96-well plates (100 µL for adherent cells and 75 µL for suspended cells) at a density of 5000–20,000 cells per well, depending on their growth rates. Adherent and suspended cells were then allowed to grow at 37 °C with 95% humidity and 5% CO2 for 24 h and 30 min, respectively. The cytotoxicity assay was initiated by adding an equal volume of cell culture medium containing tested compound at predetermined concentrations. Following 48 h of exposure, cell viability was determined using MTT assay for adherent cells[51],[52]or XTT assay for suspeended cells. Briefly, for adherent cells, 100 µL of the MTT reagent was added to each well, and the microtiter plates were further incubated for 2.5–4 h. The medium was subsequently replaced with 100 µL of DMSO to dissolve the purple formazan before the absorbance at 550 nm was measured using a microplate reader (a SpectraMax Plus 384) with a reference wavelength of 650 nm. For suspended cells, 75 µL of the XTT reagent was added to each well, and the cells were further incubated for 4 h. Afterwards, the absorbance of orange formazan at 492 nm was measured with a reference wavelength of 690 nm using a microplate reader.
# [2] = tested on: H69AR (multidrug-resistant small cell lung carcinoma); assay: Cytotoxic activity assay (MTT); type: cell-based, human; conditions: for IC50: Homo sapiens, H69AR, 48 h exposure, MTT, read-out: Cell lines, IC50 (μM) H69AR; for Selectivity Index (SI) values H69AR: SI = IC50 normal cell (MRC-5)/ IC50 cancer cell
# Source text: as §1, §2
# [3] = tested on: HeLa (cervical carcinoma); assay: Cytotoxic activity assay (MTT); type: cell-based, human; conditions: for IC50: Homo sapiens, 48 h exposure, MTT, read-out: Cell lines, IC50 (μM) HeLa; for Selectivity Index (SI) values HeLa: SI = IC50 normal cell (MRC-5)/ IC50 cancer cell
# Source text: as §1, §2
# [4] = tested on: HepG2 (hepatocellular carcinoma); assay: Cytotoxic activity assay (MTT); type: cell-based, human; conditions: for IC50: Homo sapiens, HepG2, 48 h exposure, MTT, read-out: Cell lines, IC50 (μM) HepG2; for Selectivity Index (SI) values HepG2: SI = IC50 normal cell (MRC-5)/ IC50 cancer cell
# Source text: as §1, §2
# [5] = tested on: HuCCA-1 (cholangiocarcinoma derived from a patient); assay: Cytotoxic activity assay (MTT); type: cell-based, human; conditions: for IC50: Homo sapiens, HuCC-A1, 48 h exposure, MTT, read-out: Cell lines, IC50 (μM) HuCCA-1; for Selectivity Index (SI) values HuCCA-1: SI = IC50 normal cell (MRC-5)/ IC50 cancer cell
# Source text: as §1, §2
# [6] = tested on: MDA-MB-231 (triple-negative breast cancer); assay: Cytotoxic activity assay (MTT); type: cell-based, human; conditions: for IC50: Homo sapiens, MDA-MB-231, 48 h exposure, MTT, read-out: Cell lines, IC50 (μM) MDA-MB-231; for Selectivity Index (SI) values MDA-MB-231: SI = IC50 normal cell (MRC-5)/ IC50 cancer cell
# Source text: as §1, §2
# [7] = tested on: T-47D (hormone-dependent breast cancer); assay: Cytotoxic activity assay (MTT); type: cell-based, human; conditions: for IC50: Homo sapiens, T47D, 48 h exposure, MTT, read-out: Cell lines, IC50 (μM) T47-D; for Selectivity Index (SI) values T47-D: SI = IC50 normal cell (MRC-5)/ IC50 cancer cell
# Source text: as §1, §2
# [8] = tested on: HL-60 (acute promyelocytic leukemia); assay: Cytotoxic activity assay (XTT); type: cell-based, human; conditions: for IC50: Homo sapiens, HL-60, 48 h exposure, XTT, read-out: Cell lines, IC50 (μM) HL-60; for Selectivity Index (SI) values HL-60: SI = IC50 normal cell (MRC-5)/ IC50 cancer cell
# Source text: as §1, §2
# [9] = tested on: MOLT-3 (T cell acute lymphoblastic leukemia); assay: Cytotoxic activity assay (XTT); type: cell-based, human; conditions: for IC50: Homo sapiens, MOLT-3, 48 h exposure, XTT, read-out: Cell lines, IC50 (μM) MOLT-3; for Selectivity Index (SI) values MOLT-3: SI = IC50 normal cell (MRC-5)/ IC50 cancer cell
# Source text: as §1, §2
# [10] = tested on: MRC-5 normal embryonic lung fibroblast cell line; assay: Cytotoxic activity assay (MTT), normal cells; type: cell-based; conditions: Homo sapiens, MRC5, 48 h exposure, read-out: Cell lines, IC50 (μM) MRC-5
# Source text: as §1, §2
Structure (SMILES),IC50 [1] [µM],Selectivity Index (SI) values A549 [1],IC50 [2] [µM],Selectivity Index (SI) values H69AR [2],IC50 [3] [µM],Selectivity Index (SI) values HeLa [3],IC50 [4] [µM],Selectivity Index (SI) values HepG2 [4],IC50 [5] [µM],Selectivity Index (SI) values HuCCA-1 [5],IC50 [6] [µM],Selectivity Index (SI) values MDA-MB-231 [6],IC50 [7] [µM],Selectivity Index (SI) values T47-D [7],IC50 [8] [µM],Selectivity Index (SI) values HL-60 [8],IC50 [9] [µM],Selectivity Index (SI) values MOLT-3 [9],IC50 [10] [µM]
"C=C1CC[C@H]2C(C)(C)CCC[C@]2(C)[C@H]1CC/C(C)=C/C(=O)Nc1ccccc1 [Compound 4e, (E)-3-Methyl-N-phenyl-5-((1S,4aS,8aS)-5,5,8a-trimethyl-2-methylene-decahydronaphthalen-1-yl)pent-2-enamide]",46.9 ± 1.28,2.8,> 120,1.0,98.11 ± 0.08,1.3,> 120,1.0,> 120,1.0,> 120,1.0,> 120,1.0,60.6 ± 4.97,2.2,25.9 ± 1.88,5.1,> 120
"C=C1CC[C@H]2C(C)(C)CCC[C@]2(C)[C@H]1CC/C(C)=C/C(=O)NCc1ccccc1 [Compound 4f, (E)-N-Benzyl-3-methyl-5-((1S,4aS,8aS)-5,5,8a-trimethyl-2-methylene-decahydronaphthalen-1-yl)pent-2-enamide]",> 120,1.0,> 120,1.0,> 120,1.0,> 120,1.0,> 120,1.0,> 120,1.0,> 120,1.0,87.3 ± 8.47,1.5,> 120,1.0,> 120
"C=C1CC[C@H]2C(C)(C)CCC[C@]2(C)[C@H]1CC/C(C)=C/C(=O)NCc1ccccn1 [Compound 4g, (E)-3-Methyl-N-(pyridin-2-ylmethyl)-5-((1S,4aS,8aS)-5,5,8a-trimethyl-2-methylenedecahydronaphthalen-1-yl)pent-2-enamide]",38.2 ± 0.49,1.2,92.7 ± 1.18,0.5,46.7 ± 1.03,1.0,41.7 ± 1.46,1.1,46.2 ± 0.6,1.0,35.1 ± 0.98,1.3,55.1 ± 2.8,0.8,22.7 ± 0.36,2.0,20.9 ± 0.99,2.1,44.8 ± 1.62
"C=C1CC[C@H]2C(C)(C)CCC[C@]2(C)[C@H]1CC/C(C)=C/C(=O)NCCc1c[nH]c2ccccc12 [Compound 4h, (E)-N-(2-(1H-Indol-3-yl)ethyl)-3-methyl-5-((1S,4aS,8aS)-5,5,8a-trimethyl-2-methylenedecahydronaphthalen-1-yl)pent-2-enamide]",41.4 ± 2.48,1.2,71.5 ± 2.47,0.7,20.7 ± 0.4,2.3,40.5 ± 2.25,1.2,42.4 ± 0.5,1.1,23.5 ± 0.36,2.1,> 120,0.4,16.8 ± 0.61,2.9,17.1 ± 0.57,2.8,48.2 ± 1.06
"C=C1CC[C@H]2C(C)(C)CCC[C@]2(C)[C@H]1CC/C(C)=C/C(=O)NOC [Compound 4i, (E)-N-Methoxy-3-methyl-5-((1S,4aS,8aS)-5,5,8a-trimethyl-2-methylene-decahydronaphthalen-1-yl)pent-2-enamide]",45.7 ± 0.63,1.2,96.91 ± 0.46,0.5,53.8 ± 0.83,1.0,44.26 ± 0.4,1.2,49.8 ± 0.18,1.1,45 ± 0.86,1.2,41.3 ± 1.61,1.3,24.9 ± 0.45,2.1,21.4 ± 1.29,2.5,52.68 ± 0.03
"C=C1CC[C@H]2C(C)(C)CCC[C@]2(C)[C@H]1CC/C(C)=C/C(=O)NO [Compound 4j, (E)-N-Hydroxy-3-methyl-5-((1S,4aS,8aS)-5,5,8a-trimethyl-2-methylene-decahydronaphthalen-1-yl)pent-2-enamide]",> 120,1.0,> 120,1.0,> 120,1.0,> 120,1.0,> 120,1.0,> 120,1.0,> 120,1.0,> 120,1.0,> 120,1.0,> 120
"C=C1CC[C@H]2C(C)(C)CCC[C@]2(C)[C@H]1CC/C(C)=C/C(=O)NN [Compound 4k, (E)-3-Methyl-5-((1S,4aS,8aS)-5,5,8a-trimethyl-2-methylenedecahydro-naphthalen-1-yl)pent-2-enehydrazide]",> 120,0.9,> 120,0.9,118.78 ± 0.06,1.2,> 120,0.9,130 ± 2,1.1,98.5 ± 3.01,1.5,> 120,0.9,108 ± 1.53,1.4,29.3 ± 2.43,5.0,145.8 ± 0.34
"C=C1CC[C@H]2C(C)(C)CCC[C@]2(C)[C@H]1CC/C(C)=C/C(=O)N(C)C [Compound 4m, (E)-N,N,3-Trimethyl-5-((1S,4aS,8aS)-5,5,8a-trimethyl-2-methylenedecahydro-naphthalen-1-yl)pent-2-enamide]",51.82 ± 0.25,0.8,99.97 ± 0.74,0.4,40.1 ± 0.68,1.0,52.1 ± 2.82,0.8,44.31 ± 0.42,0.9,32.1 ± 1.68,1.3,42.6 ± 1.08,1.0,19.4 ± 0.84,2.1,21.3 ± 0.47,1.9,40.8 ± 0.56
